Measurements reported in ChEMBL document CHEMBL1938325, “Synthesis of new 5,6-dihydrobenzo[h]quinazoline 2,4-diamino substituted and antiplatelet/antiphlogistic activities evaluation” (Bioorg Med Chem Lett, 2012).
Activity calls are given as the source filed them. The calls are words filed in the database; no cut-off is given here.

Tests used:
[1] = Antiplatelet activity against guinea pig platelet-rich plasma assessed as inhibition of arachidonic acid-induced platelet aggregation measured within 3 hrs by turbidimetric method; assay type: functional; conditions: Cavia porcellus
[2] = Antiplatelet activity against guinea pig platelet-rich plasma assessed as inhibition of ADP-induced platelet aggregation measured within 3 hrs by turbidimetric method; assay type: functional; conditions: Cavia porcellus
Platelet [3] = experiment: Antiplatelet activity against guinea pig platelet-rich plasma assessed as inhibition of U46619-induced platelet aggregation up to 500 uM measured within 3 hrs by turbidimetric method; assay type: functional; conditions: Cavia porcellus
Rattus norvegicus [4] = experiment: Antiphlogistic activity in Wistar rat assessed as inhibition of carrageenan-induced paw oedema at 10 mg/kg, po; assay type: functional
Mus musculus [5] = experiment: Antinociceptive activity in Swiss mouse assessed as inhibition of acetic acid induced writhing at 100 mg/kg, po measured every 5 mins for 45 mins; assay type: functional
Platelet [6] = experiment: Antiplatelet activity against guinea pig platelet-rich plasma assessed as inhibition of ADP-induced platelet aggregation up to 500 uM measured within 3 hrs by turbidimetric method; assay type: functional; conditions: Cavia porcellus
Rattus norvegicus [7] = experiment: Antiphlogistic activity in Wistar rat assessed as inhibition of carrageenan-induced paw oedema at 100 mg/kg, po; assay type: functional
Mus musculus [8] = experiment: Antinociceptive activity in Swiss mouse assessed as inhibition of acetic acid induced writhing at 50 mg/kg, po measured every 5 mins for 45 mins; assay type: functional
Mus musculus [9] = experiment: Antinociceptive activity in Swiss mouse assessed as inhibition of acetic acid induced writhing at 25 mg/kg, po measured every 5 mins for 45 mins; assay type: functional
[10] = target: Prostaglandin G/H synthase 1 (Homo sapiens) (UniProt P23219); experiment: Inhibition of COX-1 at 1 mM
Sequence of Prostaglandin G/H synthase 1 (Homo sapiens) (P23219 whole entry): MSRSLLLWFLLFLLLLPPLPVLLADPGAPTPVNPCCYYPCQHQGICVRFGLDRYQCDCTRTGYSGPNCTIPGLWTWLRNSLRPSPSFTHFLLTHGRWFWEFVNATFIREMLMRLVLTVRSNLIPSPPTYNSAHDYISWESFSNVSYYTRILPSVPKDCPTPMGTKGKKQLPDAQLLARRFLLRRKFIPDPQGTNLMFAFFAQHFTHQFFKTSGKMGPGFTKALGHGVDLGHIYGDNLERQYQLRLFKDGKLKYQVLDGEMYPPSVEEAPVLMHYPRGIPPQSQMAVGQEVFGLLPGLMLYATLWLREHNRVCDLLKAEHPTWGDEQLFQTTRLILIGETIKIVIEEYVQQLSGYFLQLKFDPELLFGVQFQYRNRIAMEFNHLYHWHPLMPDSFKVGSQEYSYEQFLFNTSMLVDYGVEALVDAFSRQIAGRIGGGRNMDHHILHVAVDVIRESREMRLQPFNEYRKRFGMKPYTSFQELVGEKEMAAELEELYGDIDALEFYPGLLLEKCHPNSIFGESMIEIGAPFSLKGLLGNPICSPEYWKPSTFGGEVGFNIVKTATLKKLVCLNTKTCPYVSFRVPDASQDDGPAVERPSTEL

Mus musculus [11] = experiment: Toxicity in Swiss mouse assessed as effect on spontaneous locomotion activity at 25 to 100 mg/kg, po by classic open filed test; assay type: organism-based; parameters: dose 25-100 mg/kg, route oral; conditions: in vivo
[12] = target: T1, Prostaglandin G/H synthase 2 (Homo sapiens) (UniProt P35354); experiment: Inhibition of COX-2 at 1 mM
T1 sequence (whole entry): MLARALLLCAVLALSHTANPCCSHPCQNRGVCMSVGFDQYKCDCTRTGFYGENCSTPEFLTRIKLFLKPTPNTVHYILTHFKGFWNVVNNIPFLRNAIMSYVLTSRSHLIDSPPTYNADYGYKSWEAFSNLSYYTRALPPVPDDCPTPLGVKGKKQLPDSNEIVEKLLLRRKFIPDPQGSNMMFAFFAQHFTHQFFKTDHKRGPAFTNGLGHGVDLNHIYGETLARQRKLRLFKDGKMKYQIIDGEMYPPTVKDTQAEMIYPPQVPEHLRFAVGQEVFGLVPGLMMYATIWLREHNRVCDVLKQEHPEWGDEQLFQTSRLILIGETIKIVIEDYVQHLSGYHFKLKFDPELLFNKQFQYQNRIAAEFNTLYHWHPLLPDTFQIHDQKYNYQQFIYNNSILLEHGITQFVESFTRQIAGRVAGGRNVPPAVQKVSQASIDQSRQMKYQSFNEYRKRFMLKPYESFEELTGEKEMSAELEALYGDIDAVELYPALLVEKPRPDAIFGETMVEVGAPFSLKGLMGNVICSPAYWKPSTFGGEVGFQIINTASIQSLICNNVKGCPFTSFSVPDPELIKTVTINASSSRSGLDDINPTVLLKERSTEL

Mus musculus [13] = experiment: Toxicity in Swiss mouse assessed as sedation at 25 to 100 mg/kg, po; assay type: organism-based; parameters: dose 25-100 mg/kg, route oral; conditions: in vivo
Rattus norvegicus [14] = experiment: Antiphlogistic activity in Wistar rat assessed as inhibition of carrageenan-induced paw oedema at 50 mg/kg, po; assay type: functional
[15] = Antiplatelet activity against guinea pig platelet-rich plasma assessed as inhibition of U46619-induced platelet aggregation measured within 3 hrs by turbidimetric method; assay type: functional; conditions: Cavia porcellus
Rattus norvegicus [16] = experiment: Antiphlogistic activity in Wistar rat assessed as inhibition of carrageenan-induced paw oedema at 25 mg/kg, po; assay type: functional

IC50 [1] [µM] | IC50 [2] [µM] | Imax [10] [%] | Imax [12] [%] | IC50 [15] [µM] | Structure (SMILES) | inhibition (Platelet [3]) | inhibition in vivo at 10 mg/kg (Rattus norvegicus [4]) [%] | inhibition in vivo at 100 mg/kg (Mus musculus [5]) [%] | inhibition (Platelet [6]) | inhibition in vivo at 100 mg/kg (Rattus norvegicus [7]) [%] | inhibition in vivo at 50 mg/kg (Mus musculus [8]) [%] | inhibition in vivo at 25 mg/kg (Mus musculus [9]) [%] | Activity (Mus musculus [11]) | Activity (Mus musculus [13]) | inhibition in vivo at 50 mg/kg (Rattus norvegicus [14]) [%] | inhibition in vivo at 25 mg/kg (Rattus norvegicus [16]) [%]
– | – | – | – | – | COc1ccc2c(c1)c(CC(=O)O)c(C)n2C(=O)c1ccc(Cl)cc1 [INDOMETHACIN] | – | 45 | – | – | – | – | – | – | – | – | –
105 | – | – | – | – | CNc1nc(Nc2ccccc2)c2c(n1)-c1ccccc1CC2 | inactive | – | 54 | inactive | 5 | 0 | – | – | – | – | –
46 | > 500 | 28.7 | 50.7 | – | CN(C)c1nc(Nc2ccccc2)c2c(n1)-c1ccccc1CC2 | inactive | – | 64 | – | 0 | 51 | 0 | Non-toxic | Non-toxic | – | –
200 | – | – | – | – | Nc1nc(NCc2ccccc2)c2c(n1)-c1ccccc1CC2 | inactive | – | 62 | inactive | 23 | 8 | – | – | – | – | –
224 | 341 | – | – | – | Nc1nc2c(c(N3CCOCC3)n1)CCc1ccccc1-2 | inactive | – | 19 | – | 40 | – | – | – | – | 0 | –
68 | 336 | – | – | 385 | Nc1nc2c(c(N3CCCCC3)n1)CCc1ccccc1-2 | – | – | 0 | – | 31 | – | – | – | – | 41 | 0
89 | – | – | – | – | Nc1nc(NCCc2ccccc2)c2c(n1)-c1ccccc1CC2 | inactive | – | 54 | inactive | 19 | 32 | – | – | – | 20 | –
89 | 311 | 50.5 | 38.6 | 205 | Nc1nc(Nc2ccccc2)c2c(n1)-c1ccccc1CC2 | – | – | 15 | – | 54 | – | – | – | – | 53 | 0
166 | 307 | – | – | – | Nc1nc2c(c(N3CCCC3)n1)CCc1ccccc1-2 | inactive | – | 30 | – | 42 | – | – | – | – | 42 | 0

Structure (SMILES) | IC50 [1] [µM] | IC50 [2] [µM] | Imax [10] [%] | Imax [12] [%] | IC50 [15] [µM] | inhibition (Platelet [3]) | inhibition in vivo at 10 mg/kg (Rattus norvegicus [4]) [%] | inhibition in vivo at 100 mg/kg (Mus musculus [5]) [%] | inhibition (Platelet [6]) | inhibition in vivo at 100 mg/kg (Rattus norvegicus [7]) [%] | inhibition in vivo at 50 mg/kg (Mus musculus [8]) [%] | inhibition in vivo at 25 mg/kg (Mus musculus [9]) [%] | Activity (Mus musculus [11]) | Activity (Mus musculus [13]) | inhibition in vivo at 50 mg/kg (Rattus norvegicus [14]) [%] | inhibition in vivo at 25 mg/kg (Rattus norvegicus [16]) [%]
CC(=O)Oc1ccccc1C(=O)O [ASPIRIN] | 45 | > 500 | – | – | – | inactive | – | – | – | – | – | – | – | – | – | –
